Experimental data: patent US9776979B2, “EBI2 modulators” (Sanford-Burnham Medical Research Institute, priority 2013, dated 2017)

Target: EBI2 (Homo sapiens, UniProt P32249)
Assay: Cell-based luminescent assay (EBI2 modulation)
Conditions: cell-based luminescence; 7a,25-OHC final assay concentration 80 nM; 60 minutes incubation; read-out: IC50
In short: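 Cells plated overnight at 37° C, then exposed to compound at 4-5 uM final with 80 nM 7a,25-OHC agonist for 60 min at 37° C. Luminescence read after 60 min detection at 25° C in the dark; values normalized to neutral and stimulator controls and plate-pattern corrected.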

Sequence of EBI2 (P32249 whole entry): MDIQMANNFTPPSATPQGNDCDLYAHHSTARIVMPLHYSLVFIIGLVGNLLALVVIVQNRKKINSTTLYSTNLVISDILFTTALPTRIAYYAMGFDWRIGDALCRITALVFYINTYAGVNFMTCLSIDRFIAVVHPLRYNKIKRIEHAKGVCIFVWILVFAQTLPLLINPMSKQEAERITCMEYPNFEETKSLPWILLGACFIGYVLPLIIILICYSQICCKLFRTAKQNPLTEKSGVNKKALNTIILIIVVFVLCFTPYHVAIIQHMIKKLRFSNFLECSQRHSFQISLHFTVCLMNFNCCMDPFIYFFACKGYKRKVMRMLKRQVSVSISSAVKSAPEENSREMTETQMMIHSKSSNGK

O=C(C#Cc1ccc(F)cc1)N1CCN(C(=O)c2ccc(F)cc2)CC1 [Compound C128, 3-(4-fluorophenyl)-1-{4-[(4-fluorophenyl)carbonyl]piperazinyl}prop-2-yn-1-one]
IC50: < 100 nM

O=C(C#Cc1cccc(Cl)c1)N1CCN(Cc2ccc(F)cc2)CC1 [Compound C129, 3-(3-chlorophenyl)-1-{4-[(4-fluorophenyl)methyl]piperazinyl}prop-2-yn-1-one]
IC50: < 100 nM

O=C(/C=C/c1ccc(Br)cc1)N1CCN(Cc2ccc(Cl)cc2F)CC1 [Compound C130, (2E)-3-(4-bromophenyl)-1-{4-[(4-chloro-2-fluorophenyl)methyl]piperazinyl}prop-2-en-1-one]
IC50: < 100 nM

O=C(/C=C/c1ccc(Br)cc1)N1CCN(Cc2ccc(F)cc2C(F)(F)F)CC1 [Compound C131, (2E)-3-(4-bromophenyl)-1-(4-{[4-fluoro-2-(trifluoromethyl)phenyl]methyl}piperazinyl)prop-2-en-1-one]
IC50: < 100 nM

O=C(C#Cc1cccc(Cl)c1Cl)N1CCN(C(=O)c2ccc(C(F)(F)F)cc2)CC1 [Compound C132, 3-(2,3-dichlorophenyl)-1-(4-{[4-(trifluoromethyl)phenyl]carbonyl}piperazinyl)prop-2-yn-1-one]
IC50: < 100 nM

O=C(c1ccc(C(F)(F)F)cc1)N1CCN(C(=O)c2cc3cc(C(F)(F)F)ccc3[nH]2)CC1 [Compound C133, 5-(trifluoromethyl)indol-2-yl 4-{[4-(trifluoromethyl)phenyl]carbonyl}piperazinyl ketone]
IC50: < 100 nM

O=C(c1ccc(F)cc1)N1CCN(C(=O)c2cc3cc(Br)ccc3[nH]2)CC1 [Compound C135, 5-bromoindol-2-yl 4-[(4-fluorophenyl)carbonyl]piperazinyl ketone]
IC50: < 100 nM

O=C(NCC1CCN(C(=O)/C=C/c2ccc(Br)cc2)CC1)c1ccc(F)cc1 [Compound C136, N-({1-[(2E)-3-(4-bromophenyl)prop-2-enoyl](4-piperidyl)}methyl)(4-fluorophenyl)carboxamide]
IC50: < 100 nM

O=C(C#Cc1ccc(C(F)(F)F)cc1)N1CCN(Cc2ccc(Cl)cc2)CC1 [Compound C137, 1-{4-[(4-chlorophenyl)methyl]piperazinyl}-3-[4-(trifluoromethyl)phenyl]prop-2-yn-1-one]
IC50: < 100 nM

O=C(/C=C/c1ccc(F)cc1)N1CCN(S(=O)(=O)c2cccc(Cl)c2)CC1 [Compound C138, (2E)-1-{4-[(3-chlorophenyl)sulfonyl]piperazinyl}-3-(4-fluorophenyl)prop-2-en-1-one]
IC50: < 100 nM

O=C(C#Cc1ccccc1)N1CCN(C(c2ccccc2)c2ccccc2)CC1 [Compound C139, 1-[4-(diphenylmethyl)piperazinyl]-3-phenylprop-2-yn-1-one]
IC50: < 100 nM

O=C(c1ccc(C(F)(F)F)cc1)N1CCN(C(=O)c2cc3cc(Br)ccc3[nH]2)CC1 [Compound C140, 5-bromoindol-2-yl 4-{[4-(trifluoromethyl)phenyl]carbonyl}piperazinyl ketone]
IC50: < 100 nM

O=C(C#Cc1cccc(Cl)c1Cl)N1CCN(Cc2ccc(F)cc2C(F)(F)F)CC1 [Compound C141, 3-(2,3-dichlorophenyl)-1-(4-{[4-fluoro-2-(trifluoromethyl)phenyl]methyl}piperazinyl)prop-2-yn-1-one]
IC50: < 100 nM

O=C(c1cc2cc(C(F)(F)F)ccc2s1)N1CCN(C(c2ccccc2)c2ccccc2)CC1 [Compound C142, 4-(diphenylmethyl)piperazinyl 5-(trifluoromethyl)benzo[b]thiophen-2-yl ketone]
IC50: < 100 nM

CC(C)(C)c1ccc(CN2CCN(C(=O)/C=C/c3ccc(Br)cc3)CC2)cc1 [Compound C144, (2E)-1-(4-{[4-(tert-butyl)phenyl]methyl}piperazinyl)-3-(4-bromophenyl)prop-2-en-1-one]
IC50: < 100 nM

CCC(=O)N1CCN(C(=O)/C=C/c2ccc(Br)cc2)CC1 [Compound C145, (2E)-3-(4-bromophenyl)-1-(4-propanoylpiperazinyl)prop-2-en-1-one]
IC50: < 100 nM

COc1ccc(/C=C/C(=O)N2CCN(S(=O)(=O)c3ccc(Br)cc3)CC2)cc1 [Compound C146, (2E)-1-{4-[(4-bromophenyl)sulfonyl]piperazinyl}-3-(4-methoxyphenyl)prop-2-en-1-one]
IC50: < 100 nM

O=C(/C=C/c1cc(F)c(F)c(F)c1)N1CCN(C(c2ccccc2)c2ccccc2)CC1 [Compound C147]
IC50: < 100 nM

O=C(C#Cc1ccc(Br)cc1)N1CCN(C(=O)c2ccc(-c3nnn[nH]3)cc2)CC1 [Compound C149, 3-(4-bromophenyl)-1-{4-[(4-(5H-1,2,3,4-tetraazol-5-yl)phenyl)carbonyl]piperazinyl}prop-2-yn-1-one]
IC50: < 100 nM

COc1ccc(C(=O)N2CCN(C(=O)c3cc4ccc(Cl)cc4[nH]3)CC2)cc1 [Compound C151, 6-chloroindol-2-yl 4-[(4-methoxyphenyl)carbonyl]piperazinyl ketone]
IC50: < 100 nM

O=C(/C=C/c1ccc(Br)cc1)N1CCN(C(=O)c2ccc(-c3nnn[nH]3)cc2)CC1 [Compound C152, (2E)-3-(4-bromophenyl)-1-{4-[(4-(1H-1,2,3,4-tetraazol-5-yl)phenyl)carbonyl]piperazinyl}prop-2-en-1-one]
IC50: < 100 nM

O=C(/C=C/c1ccc(Br)cc1)N1CCN(C(=O)c2ccc(B(O)O)cc2)CC1 [Compound C153, (E)-(4-(4-(3-(4-bromophenyl)acryloyl)piperazine-1-carbonyl)phenyl)boronic acid]
IC50: < 100 nM

O=C(C=C(Br)c1ccc(Br)cc1)N1CCN(C(c2ccccc2)c2ccccc2)CC1 [Compound C155, 1-[4-(diphenylmethyl)piperazinyl]-3-bromo-3-(4-bromophenyl)prop-2-en-1-one]
IC50: < 100 nM

O=C(c1cc2cc(F)ccc2s1)N1CCN(C(c2ccccc2)c2ccccc2)CC1 [Compound C156, 4-(diphenylmethyl)piperazinyl 5-fluorobenzo[b]thiophen-2-yl ketone]
IC50: < 100 nM

O=C(C#Cc1cccc(Cl)c1)N1CCN(C(=O)c2ccc(F)cc2C(F)(F)F)CC1 [Compound C157, 3-(3-chlorophenyl)-1-(4-{[4-fluoro-2-(trifluoromethyl)phenyl]carbonyl}piperazinyl)prop-2-yn-1-one]
IC50: < 100 nM

Cc1ccc2[nH]c(C(=S)N3CCN(C(c4ccccc4)c4ccccc4)CC3)cc2c1 [Compound C158, [4-(diphenylmethyl)piperazinyl](5-methylindol-2-yl)methane-1-thione]
IC50: < 100 nM

O=C(C#Cc1ccc(F)cc1)N1CCN(C(c2ccccc2)c2ccccc2)CC1 [Compound C159, 1-[4-(diphenylmethyl)piperazinyl]-3-(4-fluorophenyl)prop-2-yn-1-one]
IC50: < 100 nM

O=C(C#Cc1ccc(Br)cc1)N1CCN(C(=O)c2ccc(B(O)O)cc2)CC1 [Compound C160, 4-(4-(3-(4-bromophenyl)propioloyl)piperazine-1-carbonyl)phenylboronic acid]
IC50: < 100 nM

O=C(/C=C/c1ccccc1)N1CCN(Cc2ccc([N+](=O)[O-])cc2)CC1 [Compound C161, (2E)-1-{4-[(4-nitrophenyl)methyl]piperazinyl}-3-phenylprop-2-en-1-one]
IC50: < 100 nM

Cc1ccc2[nH]c(C(=O)NC3CCN(C(c4ccccc4)c4ccccc4)CC3)cc2c1 [Compound C162, N-[1-(diphenylmethyl)(4-piperidyl)](5-methylindol-2-yl)carboxamide]
IC50: 500 to 5000 nM
